Results: patent US7759087B1, “Method of indefinite culture of hepatitis C virus” (priority 2005, dated 2010)

Assays:
[1] = tested on: HCV replicon (NS5A-GFP) in GS4 cells; experiment: GFP-based flow cytometry assay for HCV replication (NS5A-GFP expression in GS4 replicon cells); format: cell-based, hepatitis C virus; settings: for mean intensity of the GFP and percentage of GFP-positive cells: 100 units/ml IFN, 1 μM 2CMA, 2 μg/ml Cs A
Protocol: (§1) Flow cytometry and cell cycle analysis. Cells were routinely fixed in 2% paraformaldehyde before flow cytometry analysis, which was performed with a FACSCanto flow cytometer (BD Biosciences). Live cell sorting was performed under sterile conditions with a FACSAria flow cytometer (BD Biosciences). The approximately 5% of cells (2×10^7 cells total) with the strongest GFP signal were sorted back for expansion at each round of live-cell sorting. For cell-cycle analysis, 1×10^6 cells were stained with 50 μg/ml propidium iodide in the presence of 200 μg/ml RNase A and 0.1% Triton X-100 for 30 minutes before being subjected to FACS analysis.
A novel GFP-based flow cytometry assay for HCV replication. Recently, a modified HCV replicon with the eGFP gene inserted into the coding region of NS5A has been generated for study of the subcellular localization of the HCV replication complex (16). […] When we subjected I/5A-GFP cells to flow-cytometry analysis, we found the GFP signal of the majority (˜70%) of the cells to be indistinguishable from that of Clone B, a replicon cell line without GFP but containing the same S2204I mutation in the NS5A gene (1) (FIG. 1). To obtain a cell line with minimal FACS-profile overlap with the GFP-negative replicon cells, we then performed consecutive rounds of cell sorting on I/5A-GFP-6 cells in which the cells with the strongest GFP were recovered. A population with no greater than 15% GFP-negative cells was obtained after four rounds of sorting and was used for the present study. We designated these cells GS4 (FIG. 1).
The GFP signal of these cells was then analyzed by flow cytometry 4 days after treatment with increasing amounts of inhibitors, including Interferon-α (IFN-α), 2′-Cmethyl-adenosine (2CMA), and Cyclosporin A (Cs A). […] The […] (0.25 μM for 2CMA, 0.5 μg/ml for CsA, and 10-25 units/ml for IFN-α) obtained with this assay closely resemble results from previous studies where HCV RNA level was measured (2, 6, 19, 26).

[2] = tested on: full-length HCV RNA based on the genotype 1b HCV-N; settings: reference 22; cited from earlier work
[3] = tested on: HCV replicon (NS5A-GFP) in GS4 cells; experiment: Recovery of NS5A-GFP expression at 37° C. after 39° C. treatment of GS4 cells; format: cell-based, hepatitis C virus; settings: 4 days recovery at 37° C.; 100 units/ml IFN-a, 10 μg/ml aphidicolin
Protocol: To eliminate the possibility that these growth-arrest treatments somehow stabilize the GFP and maintain it throughout the treatment, we took advantage of our finding that 39° C. treatment results in reversible inhibition of HCV replication in our assay. We first eliminated the GFP signal from GS4 cells by incubating them at 39° C. for 4 days and then transferred the cells back to 37° C. so that HCV replication could recover. […] We tested aphidicolin and serum starvation using this assay along with IFN-α.

HCV RNA in GS4 cells = experiment: Northern analysis of HCV RNA in GS4 cells; format: cell-based, hepatitis C virus; settings: 3 days, 1 μM 2CMA, 10 μg/ml aphidicolin
Protocol: RNA extraction and northern blots. Total RNA was extracted with TRIzol reagent (Invitrogen, San Diego, Calif.). Equal amounts of RNA (10 μg per sample) were loaded onto formaldehyde-containing agarose gels for electrophoresis. The transfer of RNA onto a nitrocellulose membrane, random labeling of a radioactive probe, and hybridization were all performed according to standard molecular-biology protocols. The probe for detecting HCV RNA is a cDNA fragment that corresponds to nucleotides 8024 to 9563 of HCV 1 b. The exposure and detection of the radioactive signal was done with a Storm 860 phosphor-imaging system (Amersham/GE Healthcare).
To validate our results at the viral RNA level, we repeated the inhibition and rescue experiments and directly examined HCV RNA by northern blotting. GS4 cells were treated with various inhibitors/agents for 3 days before the total RNAs were subjected to northern analysis for HCV RNA.

GS4 cells = experiment: Cell-cycle analysis by propidium iodide staining; format: cell-based; settings: 4 days, 10 μg/ml shown
Protocol: as §1
Failure of growth arrest to inhibit replicon expression prompted us to examine the effect of cell-cycle perturbation on replicon expression. Propidium iodide (PI) staining of the cells permitted acquisition of dual fluorescence FACS profiles showing the cell-cycle distribution of GFP-positive and -negative cells. We found no correlation between positive GFP signal and any of the cell-cycle stages in the cycling cells (FIG. 12, no treatment). Incubation at 39° C. inhibited NS5A-GFP expression without any effect on cell-cycle profile. […] Even though confluency also affected cell cycle to a certain degree, its effect on cell-cycle progress was far less dramatic than that of aphidicolin.

HCV replicon = settings: reference 17; cited from earlier work
[4] = tested on: HCV replicon (wild-type NS5A) in Huh.8 cells; experiment: Western blot for NS5A expression in Huh.8 replicon cells; format: cell-based, hepatitis C virus; settings: 4 days, 1 μM 2CMA, 10 μg/ml aphidicolin
Protocol: Antibodies and western blots. An anti-NS5A monoclonal antibody was purchased from Virogen (Boston, Mass.) and an anti-Ku86 monoclonal antibody from Sigma. A monoclonal antibody against GFP was obtained from Clontech/BD Biosciences. To detect membrane-associated HCV proteins, we directly lysed the replicon cells in SDS PAGE sample buffer. We used 2×10^5 cells per 160 μl of SDS PAGE sample buffer for all our western blotting experiments. Blotting and detection were all performed according to standard procedures. For detection of Ku86 signal, the membrane was first stripped of the NS5A signal by incubation in stripping buffer (100 mM 2mercaptoethanol, 2% SDS, 62.5 mM Tris-HCl, pH 6.7) for 30 minutes at 50° C.
Additional experiments with a replicon cell line containing a wild type HCV sequence. […] Huh.8 is replicon cell line that contains the wild-type sequence of NS5A (1). Huh.8 cells were cultured under various conditions for 4 days before being analyzed by western blot for NS5A expression. […] Serum starvation actually appeared to have increased NS5A expression, as it did with the GS4 cells (FIG. 8 and data not shown).

Compound	effect on NS5A-GFP expression ([1]; 5 to 20 μg/ml, GS4 cells, 4 days)	abundance of HCV RNA or protein [2]	recovery of NS5A-GFP expression after 39° C. treatment [3]	HCV RNA signal (northern blotting) (HCV RNA in GS4 cells)	cell-cycle arrest (GS4 cells)	effect on HCV replicon (HCV replicon)	NS5A expression (western blot) [4]	mean intensity of the GFP and percentage of GFP-positive cells ([1]; GS4 cells, 4 days)	IC50 ([1]; Hepatitis C virus, 96 h, GS4 cells, 4 days treatment, flow cytometry, read-out: 1050 (NS5A-GFP expression)) [µM]	effect on HCV RNA replication or protein expression ([1]; our system, data not shown)
C[C@@]1(CO)[C@H](O)CC[C@@]2(C)[C@H]1CC[C@H]1C[C@@H]3C[C@@]12CC[C@]3(O)CO [aphidicolin]	failed to affect NS5A-GFP expression significantly	had no effect	did not prevent the resumption of HCV replication	only had a minimal effect	effectively arrested cell cycle at the G1/S transition	inhibitory effect	did not inhibit HCV expression	–	–	–
C[C@@]1(O)[C@H](O)[C@@H](CO)O[C@H]1n1cnc2c(N)ncnc21 [2CMA, 2′-C-methyl-adenosine]	–	–	–	effectively eliminated HCV RNA signal	–	–	effectively eliminated any NS5A expression	effectively lowered	0.25	–
TGF-β	–	–	–	–	–	–	–	–	–	only a marginal effect
Interferon-α [IFN-α]	–	–	efficiently blocked the recovery of the NS5A-GFP expression	–	–	–	–	effectively lowered	–	–
